Measured values published in paper PMC12084609, “Structural insights into small-molecule agonist recognition and activation of complement receptor C3aR” (The EMBO Journal, 2025).
Positions count from the first letter of the chain named. “And” between values parts separate entries of the source, which are not always exact repeats. Identical values can stand only once. Like-named read-outs stand apart in the source and are kept apart here.

What was measured:
C3aR I102^3.32A = target: T1, C3aR I102^3.32A (Homo sapiens, UniProt Q16581, I102A); test: GloSensor-based cAMP assay, C3aR mutant I102A; type: cell-based; conditions: for ΔpIC50 ± SE of Diff.: I102^3.32A relative to WT C3aR; for cAMP response (% Forskolin): I1023.32A
T1 construct: expressed in transfected cells; host or cells: HEK293T
T1 sequence (Q16581 1-482 I102A): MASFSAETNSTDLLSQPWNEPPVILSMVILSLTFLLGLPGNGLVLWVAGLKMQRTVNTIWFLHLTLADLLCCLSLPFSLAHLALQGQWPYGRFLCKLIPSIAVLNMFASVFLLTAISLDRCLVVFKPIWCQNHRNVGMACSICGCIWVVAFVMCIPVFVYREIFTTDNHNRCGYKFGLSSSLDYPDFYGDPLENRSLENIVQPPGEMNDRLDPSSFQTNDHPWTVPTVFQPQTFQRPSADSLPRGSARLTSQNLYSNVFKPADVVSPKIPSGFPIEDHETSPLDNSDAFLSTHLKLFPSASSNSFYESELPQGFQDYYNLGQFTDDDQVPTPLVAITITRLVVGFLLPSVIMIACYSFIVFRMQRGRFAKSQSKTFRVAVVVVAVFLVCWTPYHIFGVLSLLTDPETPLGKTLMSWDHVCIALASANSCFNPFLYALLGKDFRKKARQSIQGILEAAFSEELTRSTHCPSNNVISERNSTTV
Description: (§1) HEK293T cells were seeded on 6-well plates (NEST) and transfected with pGlosensor™-22F plasmids (Promega) and pcDNA3.1 plasmids encoding C3aR or its mutants an with N-terminal FLAG tag. After 48 h, cells were detached with Accutase solution (Sigma-Aldrich) and washed with PBS, and resuspended in assay buffer (CO2-independent medium with 0.5 mg mL^−1D-luciferin). 100,000–200,000 cells were seeded on 96-well white bottom plates (SPL) and incubated at 37 °C for 45 min followed by 45 min incubation at room temperature. After 90 min of incubation, basal luminescence signals were recorded. In total, 25 μl of test ligand with various concentrations and 1 μM Forskolin (Sigma-Aldrich) were treated to the cells and luminescence signals were measured by Tristar 2 LB 942 multimode reader (Berthold). […] Relative luminescence unit (%) was calculated with the signal of wells treated with vehicle as 0% and the signal of wells treated with 1 μM Forskolin as 100% (DiRaddo et al, [2014]). Nonlinear regression was performed using a three-parameter logistic equation.

C3aR R161A = conditions: quoted by Referee #2; ref https://doi.org/10.1038/s41589-023-01339-w; cited from earlier work
C3aR R161^ECL2A = target: T2, C3aR R161^ECL2A (Homo sapiens, UniProt Q16581, R161A); test: GloSensor-based cAMP assay, C3aR mutant R161A; type: cell-based; conditions: for cAMP response (% Forskolin): R161ECL2A
T2 construct: expressed in transfected cells; host or cells: HEK293T
T2 sequence (Q16581 1-482 R161A): T1 sequence (Q16581 1-482 I102A) with A102I, R161A
Description: as §1

C3aR D417^7.35A = target: T3, C3aR D417^7.35A (Homo sapiens, UniProt Q16581, D417A); test: GloSensor-based cAMP assay, C3aR mutant D417A; type: cell-based; conditions: for cAMP response (% Forskolin): D4177.35A
T3 construct: expressed in transfected cells; host or cells: HEK293T
T3 sequence (Q16581 1-482 D417A): T1 sequence (Q16581 1-482 I102A) with A102I, D417A
Description: as §1

C3aR [1] = target: T4, C3aR (Homo sapiens, UniProt Q16581); design: method as in Luo et al, 2025; conditions: human monocyte THP-1 cells, naturally express C3aR; ref Luo et al, 2025; cited from earlier work
C3aR [2] = target: T4, C3aR; design: method as in Rowley et al, 2020; conditions: inhibition of C3a-induced calcium release and mast cell degranulation; ref Rowley et al, 2020; cited from earlier work
C3aR [3] = system: C3aR; design: method as in Mathieu et al, 2005; Rodriguez et al, 2024; conditions: blockade of calcium influx attributed to β-arrestin mediated internalization; ref Mathieu et al, 2005; Rodriguez et al, 2024; cited from earlier work
C3aR [4] = system: C3aR; design: method as in Luo et al, 2025; conditions: HEK293 cells; ref Luo et al, 2025; cited from earlier work
[5] = Dunnett's multiple comparisons test, WT minus mutant
[6] = Log[C3a (M)] -7, single replicates
[7] = Log[C3a (M)] -8, single replicates
[8] = Log[C3a (M)] -9, single replicates
[9] = Log[C3a (M)] -10, single replicates
[10] = Log[C3a (M)] -11, single replicates
[11] = Log[C3a (M)] -12, single replicates

T4 sequence (Q16581 whole entry): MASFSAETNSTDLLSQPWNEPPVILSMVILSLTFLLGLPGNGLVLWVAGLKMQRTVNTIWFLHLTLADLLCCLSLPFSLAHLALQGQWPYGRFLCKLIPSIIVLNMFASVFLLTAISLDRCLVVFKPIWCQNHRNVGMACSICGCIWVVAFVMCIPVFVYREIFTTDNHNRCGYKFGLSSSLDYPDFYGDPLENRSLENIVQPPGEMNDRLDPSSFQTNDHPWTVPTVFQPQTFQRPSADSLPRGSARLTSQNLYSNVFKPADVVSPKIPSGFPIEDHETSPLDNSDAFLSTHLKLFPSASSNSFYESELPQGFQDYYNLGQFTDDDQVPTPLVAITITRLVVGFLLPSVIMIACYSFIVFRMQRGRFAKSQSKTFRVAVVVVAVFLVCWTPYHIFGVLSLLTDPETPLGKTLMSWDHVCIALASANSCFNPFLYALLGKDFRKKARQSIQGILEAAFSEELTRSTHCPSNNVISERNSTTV
T4 sequence (P63096 2-354 partner limits assumed): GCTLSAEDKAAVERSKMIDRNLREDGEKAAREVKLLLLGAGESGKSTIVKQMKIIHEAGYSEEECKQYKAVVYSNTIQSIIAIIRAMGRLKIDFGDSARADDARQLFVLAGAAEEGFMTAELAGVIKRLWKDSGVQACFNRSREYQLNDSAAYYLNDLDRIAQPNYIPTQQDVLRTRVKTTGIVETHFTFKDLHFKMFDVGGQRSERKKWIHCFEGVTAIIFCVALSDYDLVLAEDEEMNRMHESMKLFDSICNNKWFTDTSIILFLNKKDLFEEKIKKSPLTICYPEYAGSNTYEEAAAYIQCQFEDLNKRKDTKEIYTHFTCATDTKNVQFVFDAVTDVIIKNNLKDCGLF
T4 sequence (P62873 2-340 partner limits assumed): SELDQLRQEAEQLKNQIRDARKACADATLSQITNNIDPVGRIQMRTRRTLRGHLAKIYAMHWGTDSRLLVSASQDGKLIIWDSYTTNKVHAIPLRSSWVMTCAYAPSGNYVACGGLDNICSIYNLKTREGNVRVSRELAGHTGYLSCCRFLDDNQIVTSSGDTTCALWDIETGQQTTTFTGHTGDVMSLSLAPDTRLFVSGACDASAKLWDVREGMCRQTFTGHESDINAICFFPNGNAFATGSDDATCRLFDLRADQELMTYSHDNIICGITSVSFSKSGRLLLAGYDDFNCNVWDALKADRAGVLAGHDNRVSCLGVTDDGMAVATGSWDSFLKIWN
T4 sequence (P59768 2-68 partner limits assumed): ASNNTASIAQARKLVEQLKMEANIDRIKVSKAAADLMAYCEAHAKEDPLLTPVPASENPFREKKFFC

## C3a: anaphylatoxin C3a, natural peptide ligand of C3aR (a 77-amino acid peptide), Sigma-Aldrich
C3aR I102^3.32A; [5]
  Mean Diff. of pIC50, WT vs. I102A: 0.080
C3aR I102^3.32A
  ΔpIC50 ± SE of Diff.: -0.08 ± 0.06
C3aR I102^3.32A; I102^3.32A, dose-response plot, read-out: IC50
  IC50: 3.33 nM
C3aR I102^3.32A; I102^3.32A, individual replicates
  pIC50 (Replicate): 8.61 and 8.63 and 8.49
C3aR I102^3.32A; I102^3.32A, mean of independent experiments
  pIC50 ± SEM (Mean): 8.47
C3aR I102^3.32A; [6]
  cAMP response (% Forskolin): 12.51 % Forskolin and 13.87 % Forskolin and 13.89 % Forskolin and 16.73 % Forskolin
C3aR I102^3.32A; [7]
  cAMP response (% Forskolin): 18.09 % Forskolin and 20.55 % Forskolin and 21.20 % Forskolin and 43.71 % Forskolin
C3aR I102^3.32A; [8]
  cAMP response (% Forskolin): 79.37 % Forskolin and 75.76 % Forskolin and 87.66 % Forskolin and 96.25 % Forskolin
C3aR I102^3.32A; [9]
  cAMP response (% Forskolin): 100.22 % Forskolin and 97.06 % Forskolin and 101.20 % Forskolin and 92.74 % Forskolin
C3aR I102^3.32A; [10]
  cAMP response (% Forskolin): 101.22 % Forskolin and 97.60 % Forskolin and 96.34 % Forskolin and 96.47 % Forskolin
C3aR I102^3.32A; [11]
  cAMP response (% Forskolin): 100.09 % Forskolin and 99.44 % Forskolin and 103.06 % Forskolin and 100.29 % Forskolin
C3aR R161A
  decrease of potency toward C3aR by R161A: ~ 1000 fold
C3aR R161^ECL2A; [6]
  cAMP response (% Forskolin): 95.22 % Forskolin and 113.23 % Forskolin and 84.95 % Forskolin
C3aR R161^ECL2A; [7]
  cAMP response (% Forskolin): 93.59 % Forskolin and 100.34 % Forskolin and 90.06 % Forskolin
C3aR R161^ECL2A; [8]
  cAMP response (% Forskolin): 101.94 % Forskolin and 107.61 % Forskolin and 95.04 % Forskolin
C3aR R161^ECL2A; [9]
  cAMP response (% Forskolin): 94.48 % Forskolin and 102.25 % Forskolin and 94.73 % Forskolin
C3aR R161^ECL2A; [10]
  cAMP response (% Forskolin): 103.03 % Forskolin and 121.75 % Forskolin and 96.66 % Forskolin
C3aR R161^ECL2A; [11]
  cAMP response (% Forskolin): 95.52 % Forskolin and 105.32 % Forskolin and 102.35 % Forskolin
C3aR D417^7.35A; [6]
  cAMP response (% Forskolin): 91.99 % Forskolin and 99.64 % Forskolin and 84.06 % Forskolin
C3aR D417^7.35A; [7]
  cAMP response (% Forskolin): 90.00 % Forskolin and 93.47 % Forskolin and 96.64 % Forskolin
C3aR D417^7.35A; [8]
  cAMP response (% Forskolin): 98.82 % Forskolin and 114.21 % Forskolin and 106.52 % Forskolin
C3aR D417^7.35A; [9]
  cAMP response (% Forskolin): 109.81 % Forskolin and 104.73 % Forskolin and 103.88 % Forskolin
C3aR D417^7.35A; [10]
  cAMP response (% Forskolin): 98.54 % Forskolin and 110.53 % Forskolin and 108.95 % Forskolin
C3aR D417^7.35A; [11]
  cAMP response (% Forskolin): 97.82 % Forskolin and 107.45 % Forskolin and 101.02 % Forskolin

## Cc1cc(C(c2ccc(Cl)cc2)c2ccc(Cl)cc2)sc1C(=O)N[C@@H](CCCNC(=N)N)C(=O)O [JR14a, reference compound]
C3aR I102^3.32A; I102A, Log[JR14a (M)] -6, single replicates, read-out: cAMP response (% Forskolin)
  remaining activity at 1 µM: 11.4%
C3aR I102^3.32A; I102A, Log[JR14a (M)] -7, single replicates, read-out: cAMP response (% Forskolin)
  remaining activity at 0.1 µM: 12.3%
C3aR I102^3.32A; I102A, Log[JR14a (M)] -8, single replicates, read-out: cAMP response (% Forskolin)
  remaining activity at 0.01 µM: 52.6%
C3aR I102^3.32A; I102A, Log[JR14a (M)] -9, single replicates, read-out: cAMP response (% Forskolin)
  remaining activity at 0.001 µM: 79.2%
C3aR I102^3.32A; I102A, Log[JR14a (M)] -10, single replicates, read-out: cAMP response (% Forskolin)
  remaining activity at 0.0001 µM: 97.7%
C3aR I102^3.32A; I102A, Log[JR14a (M)] -11, single replicates, read-out: cAMP response (% Forskolin)
  remaining activity at 10 pM: 104%
C3aR I102^3.32A
  ΔpIC50 ± SE of Diff.: -0.13 ± 0.07
C3aR I102^3.32A; IC50, I102^3.32A, dose-response plot
  IC50: 7.05 nM
C3aR I102^3.32A; pIC50 (Replicate), I102^3.32A, individual replicates
  IC50: 7.76 nM and 9.12 nM and 4.68 nM
C3aR I102^3.32A; pIC50 ± SEM (Mean), I102^3.32A, mean of independent experiments
  IC50: 6.92 nM
C3aR [1]
  forskolin-induced cAMP production: inhibited forskolin-induced cAMP production in a dose-dependent manner
C3aR [2]
  IC50 values: nanomolar range
C3aR [3]
  activity at C3aR: potent agonist
C3aR R161^ECL2A; [5]
  Mean Diff. of pIC50, WT vs. R161A: -0.085
C3aR R161^ECL2A; IC50, R161^ECL2A, dose-response plot, Not calculated = entire loss of signaling
  IC50: 2.28 nM
C3aR R161^ECL2A; R161A, Log[JR14a (M)] -6, single replicates, read-out: cAMP response (% Forskolin)
  remaining activity at 1 µM: 11.8%
C3aR R161^ECL2A; R161A, Log[JR14a (M)] -7, single replicates, read-out: cAMP response (% Forskolin)
  remaining activity at 0.1 µM: 13.6%
C3aR R161^ECL2A; R161A, Log[JR14a (M)] -8, single replicates, read-out: cAMP response (% Forskolin)
  remaining activity at 0.01 µM: 41.3%
C3aR R161^ECL2A; R161A, Log[JR14a (M)] -9, single replicates, read-out: cAMP response (% Forskolin)
  remaining activity at 0.001 µM: 79.3%
C3aR R161^ECL2A; R161A, Log[JR14a (M)] -10, single replicates, read-out: cAMP response (% Forskolin)
  remaining activity at 0.0001 µM: 99.1%
C3aR R161^ECL2A; R161A, Log[JR14a (M)] -11, single replicates, read-out: cAMP response (% Forskolin)
  remaining activity at 10 pM: 108%
C3aR R161^ECL2A; R161^ECL2A relative to WT C3aR
  ΔpIC50 ± SE of Diff.: 0.09 ± 0.04
C3aR R161^ECL2A; R161^ECL2 to Ala, relatively mild effect on downstream signaling
  decrease in IC50 values vs WT: < 10 fold
C3aR R161^ECL2A; pIC50 (Replicate), R161^ECL2A, individual replicates
  IC50: 3.72 nM and 1.86 nM and 1.74 nM
C3aR D417^7.35A; D417A, Log[JR14a (M)] -6, single replicates, read-out: cAMP response (% Forskolin)
  remaining activity at 1 µM: 35.7%
C3aR D417^7.35A; D417A, Log[JR14a (M)] -7, single replicates, read-out: cAMP response (% Forskolin)
  remaining activity at 0.1 µM: 87.8%
C3aR D417^7.35A; D417A, Log[JR14a (M)] -9, single replicates, read-out: cAMP response (% Forskolin)
  remaining activity at 0.001 µM: 105%
C3aR D417^7.35A; D417A, Log[JR14a (M)] -10, single replicates, read-out: cAMP response (% Forskolin)
  remaining activity at 0.0001 µM: 104%
C3aR D417^7.35A; D417^7.35A relative to WT C3aR
  ΔpIC50 ± SE of Diff.: -2.18 ± 0.05
C3aR D417^7.35A; [5]
  Mean Diff. of pIC50, WT vs. D417A: 2.176
C3aR D417^7.35A; IC50, D417^7.35A, dose-response plot, Not calculated = entire loss of signaling
  IC50: 425 nM
C3aR D417^7.35A; pIC50 (Replicate), D417^7.35A, individual replicates
  IC50: 575 nM and 339 nM and 380 nM
C3aR D417^7.35A; pIC50 ± SEM (Mean), D417^7.35A, mean of independent experiments, Not calculated = entire loss of signaling
  IC50: 417 nM
C3aR [4]
  forskolin-induced cAMP production: inhibited forskolin-induced cAMP production in a dose-dependent manner
